From patent US20210346411A1 (priority 2020, published 2021)
“Also recorded” adds a separate entry of the source.

Assays:
[1] = tested on: SARS-CoV-2 (2019-nCoV) virus (nCoV-2019BetaCoV/Wuhan/WIV04/2019 strain); assay: Reduction of viral nucleic acid load of Vero E6 cells infected by SARS-CoV-2 (qRT-PCR of supernatant); format: cell-based; parameters: Virus genome copy number: unit not given here; conditions: for Virus genome copy number: 48 h, Vero E6, 100TCID50, supernatant
[2] = tested on: Vero E6 cells; assay: Cytotoxicity test of drug (CCK-8 kit); format: cell-based; conditions: all test concentrations (0.14-100 μM), 48 hours
[3] = tested on: EBOV; conditions: intravenous 10 mg/kg per day for consecutive 12 days, treatment started three days after virus exposure; cited from earlier work

Structure (SMILES): CCC(CC)COC(=O)[C@H](C)N[P@](=O)(OC[C@H]1O[C@@](C#N)(c2ccc3c(N)ncnn23)[C@H](O)[C@@H]1O)Oc1ccccc1 [Remdesivir, 2-ethylbutyl (2S)-2-[[[(2R,3S,4R,5R)-5-(4-aminopyrrolo[2,1-f][1,2,4]triazin-7-yl)-5-cyano-3,4-dihydroxyoxolan-2-yl]methoxy-phenoxyphosphoryl]amino]propanoate]
- Virus genome copy number ([1]; 0.14 μM): 6120820311.5
- Virus genome copy number ([1]; 0.41 μM): 1751863138.5
- Virus genome copy number ([1]; 1.23 μM): 879273650.5
- Virus genome copy number ([1]; 3.70 μM): 20287512.5
- Virus genome copy number ([1]; 11.11 μM): 16308516.5
- Virus genome copy number ([1]; 33.33 μM): 12429732
- Virus genome copy number ([1]; 100 μM): 9010444.5
- inhibition of the replication of the SARS-CoV-2 virus genome in the infected supernatant ([1]; concentrations of 100 μM, 33 μM, 11.1 μM and 3.7 μM): could effectively inhibit
- reduction of the viral nucleic acid load ([1]; drug concentration of 33 μM, 48 hours after infection, Vero E6): an order of magnitude
- viral nucleic acid load in cells infected by SARS-CoV-2 ([1]; micromolar concentration level): can reduce the viral nucleic acid load
- cytotoxicity (toxic effect on the cells) [2]: no cytotoxicity was observed; also recorded: no toxic effect
- EBOV-infected animals protected from death [3]: 100%
- replication of EBOV [3]: significantly inhibit
